The results in this text go back to patent US20260184710A1, “CASITAS B-LINEAGE LYMPHOMA PROTOONCOGENE B (CBL-B) DEGRADING COMPOUNDS AND ASSOCIATED METHODS OF USE” (Arvinas Operations, Inc., priority 2022, published 2026).

Molecules are shown by their SMILES. A value given as a limit tells only on which side of the number the result lay.

By Dmax is commonly meant the largest share of the target that was removed.

Test [1] concerns the target T1, Cbl-b (Homo sapiens, UniProt Q13191).
T1 construct: Cbl-b-HiBit KI Jurkat Cells were purchased from Promega; host or cells: Cbl-b-HiBiT knock-in Jurkat cells
As to the kind of experiment: Cbl-b Degradation Method A (FACS, anti-Cbl-b antibody staining). The test is classed as cell-based. The settings on record: Cbl-b-HiBit KI Jurkat Cells, incubated at least 20 hours; for DC50: half maximal degradation, read-out: Cbl-b Degredation Method A IC50; for Dmax: Jurkat, maximum degradation observed, read-out: Cbl-b Degredation Method A Dmax (%). The method, boiled down:
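Cbl-b-HiBit KI Jurkat cells treated with compound for at least 20 h at 37 °C, then fixed, permeabilized and stained with anti-Cbl-b antibody plus anti-rabbit AF488 secondary. Cbl-b levels read by FACS; DC50 and Dmax (percent of control) derived.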
On the technique in general: HiBiT is a short tag that completes a luciferase, so light tracks the accessible tagged protein.

Test [2] addresses T1, Cbl-b. As to the kind of experiment: Cbl-b Degradation Method B (Nano-Glo HiBiT lytic detection). To be noted: Cbl-b-HiBit KI Jurkat Cells, incubated at least 6-24 hours; for DC50: half maximal degradation, read-out: Cbl-b Degredation Method B IC50; for Dmax: maximum degradation observed, read-out: Cbl-b Degredation Method B Dmax (%). The test is classed as cell-based. In outline:
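Cbl-b-HiBiT knock-in Jurkat cells (20,000/well) were treated after ~24 h plating with an 11-point 1:3 series for 6-24 h at 37° C. Remaining Cbl-b measured by Nano-Glo HiBiT lytic luminescence. DC50 and Dmax expressed as % of control.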

T1 sequence (Q13191 whole entry): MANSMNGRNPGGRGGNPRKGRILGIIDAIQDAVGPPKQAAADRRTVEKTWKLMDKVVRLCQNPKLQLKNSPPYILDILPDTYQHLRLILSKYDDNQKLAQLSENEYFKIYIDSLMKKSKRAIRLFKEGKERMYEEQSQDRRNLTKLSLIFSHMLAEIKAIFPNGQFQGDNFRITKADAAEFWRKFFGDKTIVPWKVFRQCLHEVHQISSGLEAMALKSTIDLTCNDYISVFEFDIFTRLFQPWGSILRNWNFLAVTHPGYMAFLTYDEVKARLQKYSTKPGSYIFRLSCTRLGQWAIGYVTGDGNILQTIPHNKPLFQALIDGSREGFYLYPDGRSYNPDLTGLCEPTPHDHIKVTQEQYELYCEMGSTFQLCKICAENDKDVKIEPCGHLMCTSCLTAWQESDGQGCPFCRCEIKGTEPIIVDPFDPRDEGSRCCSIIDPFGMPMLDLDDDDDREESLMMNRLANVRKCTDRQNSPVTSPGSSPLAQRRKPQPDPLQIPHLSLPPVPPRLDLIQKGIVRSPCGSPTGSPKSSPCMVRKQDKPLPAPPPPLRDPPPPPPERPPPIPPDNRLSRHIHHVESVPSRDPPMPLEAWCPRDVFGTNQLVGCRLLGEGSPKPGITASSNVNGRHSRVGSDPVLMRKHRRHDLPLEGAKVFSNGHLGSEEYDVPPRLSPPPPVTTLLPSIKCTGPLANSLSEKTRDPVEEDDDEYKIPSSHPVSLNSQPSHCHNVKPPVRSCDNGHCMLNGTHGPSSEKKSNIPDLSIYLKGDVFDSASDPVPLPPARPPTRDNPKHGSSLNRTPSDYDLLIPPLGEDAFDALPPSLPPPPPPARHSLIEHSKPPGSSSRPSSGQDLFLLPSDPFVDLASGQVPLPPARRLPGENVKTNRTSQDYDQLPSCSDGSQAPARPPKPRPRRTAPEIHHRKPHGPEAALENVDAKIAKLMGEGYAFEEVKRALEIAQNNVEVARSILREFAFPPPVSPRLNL

In the case of `Cn1cnnc1CC1(c2cccc(NC(=O)c3cc(N4CC5(CCN(CC6CCN(c7ccc8c(c7)C(=O)N(C7CCC(=O)NC7=O)C8=O)CC6)CC5)C4)nc(C4CC4)n3)c2)COC1` (centres unmarked) [Example 18, 2-cyclopropyl-6-[7-[[1-[2-(2,6-dioxo-3-piperidyl)-1,3-dioxo-isoindolin-5-yl]-4-piperidyl]methyl]-2,7-diazaspiro[3.5]nonan-2-yl]-N-[3-[3-[(4-methyl-1,2,4-triazol-3-yl)methyl]oxetan-3-yl]phenyl]pyrimidine-4-carboxamide], in test [1], the DC50 was 0.05 to 0.5 µM and the Dmax is < 35%. Besides, in test [2], the DC50 was > 0.5 µM.
Regarding `Cn1cnnc1CC1(c2cccc(NC(=O)c3cc(CN4CCC[C@H](CN5CCC(CN6CCN(c7ccc8c(c7)C(=O)N(C7CCC(=O)NC7=O)C8=O)CC6)CC5)C4)nc(C4CC4)n3)c2)COC1` (stereo partly drawn) [Example 19, 2-cyclopropyl-6-[[(3R)-3-[[4-[[4-[2-(2,6-dioxo-3-piperidyl)-1,3-dioxo-isoindolin-5-yl]piperazin-1-yl]methyl]-1-piperidyl]methyl]-1-piperidyl]methyl]-N-[3-[3-[(4-methyl-1,2,4-triazol-3-yl)methyl]oxetan-3-yl]phenyl]pyrimidine-4-carboxamide], the DC50 in test [1] is 0.05 to 0.5 µM. Besides, in test [2], the DC50 was < 0.005 µM and the Dmax is < 35%.
For the compound `Cn1cnnc1CC1(c2cccc(N3Cc4c(cc(N5CC6(CC(CCOc7ccc8c(c7)C(=O)N(C7CCC(=O)NC7=O)C8=O)C6)C5)cc4C(F)(F)F)C3=O)c2)COC1` (centres unmarked) [Example 20, 2-(2,6-dioxo-3-piperidyl)-5-[2-[2-[2-[3-[3-[(4-methyl-1,2,4-triazol-3-yl)methyl]oxetan-3-yl]phenyl]-3-oxo-7-(trifluoromethyl)isoindolin-5-yl]-2-azaspiro[3.3]heptan-6-yl]ethoxy]isoindoline-1,3-dione], the DC50 in test [1] and in test [2] was > 0.5 µM in each case.
Take `Cn1cnnc1CC1(c2cccc(N3Cc4c(cc(N5CC(OCC6CCN(c7ccc8c(c7)CN(C7CCC(=O)NC7=O)C8=O)CC6)C5)cc4C(F)(F)F)C3=O)c2)COC1` (centres unmarked) [Example 21, 3-[5-[4-[[1-[2-[3-[3-[(4-methyl-1,2,4-triazol-3-yl)methyl]oxetan-3-yl]phenyl]-3-oxo-7-(trifluoromethyl)isoindolin-5-yl]azetidin-3-yl]oxymethyl]-1-piperidyl]-1-oxo-isoindolin-2-yl]piperidine-2,6-dione]: the DC50 in test [1] and in test [2] was > 0.5 µM in each case.
For the compound `Cn1cnnc1CC1(c2cccc(N3Cc4c(cc(CN5CCN(C[C@H]6CC[C@H](OC7CCN(c8ccc9c(c8)C(=O)N(C8CCC(=O)NC8=O)C9=O)CC7)CC6)CC5)cc4C(F)(F)F)C3=O)c2)COC1` (some centres unmarked) [Example 22, 2-(2,6-dioxo-3-piperidyl)-5-[4-[4-[[4-[[2-[3-[3-[(4-methyl-1,2,4-triazol-3-yl)methyl]oxetan-3-yl]phenyl]-3-oxo-7-(trifluoromethyl)isoindolin-5-yl]methyl]piperazin-1-yl]methyl]cyclohexoxy]-1-piperidyl]isoindoline-1,3-dione], the DC50 in test [1] is 0.005 to 0.05 µM; in test [2] it was < 0.005 µM. The Dmax in test [1] and in test [2] was 35 to 70% in each case.
In the case of `Cn1cnnc1CC1(c2cccc(N3Cc4c(cc(N5CCC(CN6CCC7(CC6)CN(c6ccc8c(c6)C(=O)N(C6CCC(=O)NC6=O)C8=O)C7)CC5)cc4C(F)(F)F)C3=O)c2)COC1` (centres unmarked) [Example 23, 2-(2,6-dioxopiperidin-3-yl)-5-[7-({1-[2-(3-{3-[(4-methyl-4H-1,2,4-triazol-3-yl)methyl]oxetan-3-yl}phenyl)-3-oxo-7-(trifluoromethyl)-2,3-dihydro-1H-isoindol-5-yl]piperidin-4-yl}methyl)-2,7-diazaspiro[3.5]nonan-2-yl]-2,3-dihydro-1H-isoindole-1,3-dione], in test [1], the DC50 was 0.05 to 0.5 µM and the Dmax was < 35%. Besides, the DC50 in test [2] was > 0.5 µM.
As for `Cn1cnnc1CC1(c2cccc(N3Cc4c(cc(CN5CCC(CN6CCN(c7ccc8c(c7)C(=O)N(C7CCC(=O)NC7=O)C8=O)CC6)CC5)cc4C(F)(F)F)C3=O)c2)COC1` (centres unmarked) [Example 28, 2-(2,6-dioxopiperidin-3-yl)-5-{4-[(1-{[2-(3-{3-[(4-methyl-4H-1,2,4-triazol-3-yl)methyl]oxetan-3-yl}phenyl)-3-oxo-7-(trifluoromethyl)-2,3-dihydro-1H-isoindol-5-yl]methyl}piperidin-4-yl)methyl]piperazin-1-yl}-2,3-dihydro-1H-isoindole-1,3-dione], the DC50 in test [1] and in test [2] was > 0.5 µM in each case.
For `Cn1cnnc1CC1(c2cccc(N3Cc4c(cc(CN5CCC(CN6CCC7(CC6)CCN(c6ccc8c(c6)C(=O)N(C6CCC(=O)NC6=O)C8=O)CC7)CC5)cc4C(F)(F)F)C3=O)c2)COC1` (centres unmarked) [Example 29, 2-(2,6-dioxopiperidin-3-yl)-5-{9-[(1-{[2-(3-{3-[(4-methyl-4H-1,2,4-triazol-3-yl)methyl]oxetan-3-yl}phenyl)-3-oxo-7-(trifluoromethyl)-2,3-dihydro-1H-isoindol-5-yl]methyl}piperidin-4-yl)methyl]-3,9-diazaspiro[5.5]undecan-3-yl}-2,3-dihydro-1H-isoindole-1,3-dione], the DC50 in test [1] and in test [2] was > 0.5 µM each time.
On to `Cn1cnnc1CC1(c2cccc(N3Cc4c(cc(CN5CCC(CN6CCC(Oc7ccc8c(c7)C(=O)N(C7CCC(=O)NC7=O)C8=O)CC6)CC5)cc4C(F)(F)F)C3=O)c2)COC1` (centres unmarked) [Example 30, 2-(2,6-dioxopiperidin-3-yl)-5-({1-[(1-{[2-(3-{3-[(4-methyl-4H-1,2,4-triazol-3-yl)methyl]oxetan-3-yl}phenyl)-3-oxo-7-(trifluoromethyl)-2,3-dihydro-1H-isoindol-5-yl]methyl}piperidin-4-yl)methyl]piperidin-4-yl}oxy)-2,3-dihydro-1H-isoindole-1,3-dione], for which the DC50 in test [1] and in test [2] was > 0.5 µM throughout.
For the compound `Cn1cnnc1CC1(c2cccc(N3Cc4c(cc(CN5CCC(CN6CC7(C6)CN(c6ccc8c(c6)C(=O)N(C6CCC(=O)NC6=O)C8=O)C7)CC5)cc4C(F)(F)F)C3=O)c2)COC1` (centres unmarked) [Example 31, 2-(2,6-dioxopiperidin-3-yl)-5-{6-[(1-{[2-(3-{3-[(4-methyl-4H-1,2,4-triazol-3-yl)methyl]oxetan-3-yl}phenyl)-3-oxo-7-(trifluoromethyl)-2,3-dihydro-1H-isoindol-5-yl]methyl}piperidin-4-yl)methyl]-2,6-diazaspiro[3.3]heptan-2-yl}-2,3-dihydro-1H-isoindole-1,3-dione], the DC50 in test [1] and in test [2] was > 0.5 µM in each case.
As for `Cn1cnnc1CC1(c2cccc(N3Cc4c(cc(CN5CCC[C@H](CN6CCC(CN7CCC(CN8CCN(c9ccc%10c(c9F)CN(C9CCC(=O)NC9=O)C%10=O)CC8)CC7)CC6)C5)cc4C(F)(F)F)C3=O)c2)COC1` (stereo partly drawn) [Example 74, 3-{4-fluoro-5-[4-({1-[(1-{[(3R)-1-{[2-(3-{3-[(4-methyl-4H-1,2,4-triazol-3-yl)methyl]oxetan-3-yl}phenyl)-3-oxo-7-(trifluoromethyl)-2,3-dihydro-1H-isoindol-5-yl]methyl}piperidin-3-yl]methyl}piperidin-4-yl)methyl]piperidin-4-yl}methyl)piperazin-1-yl]-1-oxo-2,3-dihydro-1H-isoindol-2-yl}piperidine-2,6-dione], in test [1], the DC50 is 0.005 to 0.05 µM and the Dmax is > 70%. Moreover, in test [2], the DC50 is < 0.005 µM and the Dmax was > 70%.
Regarding `Cn1cnnc1CC1(c2cccc(N3Cc4c(cc(CN5CCC(CC6CCN(c7ccc8c(c7)C(=O)N(C7CCC(=O)NC7=O)C8=O)CC6)C5)cc4C(F)(F)F)C3=O)c2)COC1` (centres unmarked) [Example 75, 2-(2,6-dioxopiperidin-3-yl)-5-{4-[(1-{[2-(3-{3-[(4-methyl-4H-1,2,4-triazol-3-yl)methyl]oxetan-3-yl}phenyl)-3-oxo-7-(trifluoromethyl)-2,3-dihydro-1H-isoindol-5-yl]methyl}pyrrolidin-3-yl)methyl]piperidin-1-yl}-2,3-dihydro-1H-isoindole-1,3-dione], the DC50 in test [1] and in test [2] was > 0.5 µM throughout.
Consider `Cn1cnnc1CC1(c2cccc(N3Cc4c(cc(CN5CCCC(CN6CCN(c7ccc8c(c7)C(=O)N(C7CCC(=O)NC7=O)C8=O)CC6)C5)cc4C(F)(F)F)C3=O)c2)COC1` (centres unmarked) [Example 76, 2-(2,6-dioxopiperidin-3-yl)-5-{4-[(1-{[2-(3-{3-[(4-methyl-4H-1,2,4-triazol-3-yl)methyl]oxetan-3-yl}phenyl)-3-oxo-7-(trifluoromethyl)-2,3-dihydro-1H-isoindol-5-yl]methyl}piperidin-3-yl)methyl]piperazin-1-yl}-2,3-dihydro-1H-isoindole-1,3-dione], for which the DC50 in test [1] and in test [2] was > 0.5 µM each time.
As for `Cn1cnnc1CC1(c2cccc(N3Cc4c(cc(CN5CCC(CN6CCC(C7CCN(c8ccc9c(c8)C(=O)N(C8CCC(=O)NC8=O)C9=O)CC7)CC6)CC5)cc4C(F)(F)F)C3=O)c2)COC1` (centres unmarked) [Example 77, 2-(2,6-dioxopiperidin-3-yl)-5-{1′-[(1-{[2-(3-{3-[(4-methyl-4H-1,2,4-triazol-3-yl)methyl]oxetan-3-yl}phenyl)-3-oxo-7-(trifluoromethyl)-2,3-dihydro-1H-isoindol-5-yl]methyl}piperidin-4-yl)methyl]-[4,4′-bipiperidin]-1-yl}-2,3-dihydro-1H-isoindole-1,3-dione], the DC50 in test [1] and in test [2] was > 0.5 µM in each case.
